Some test systems named below: OVCAR-8 ovarian; NCI-H226 lung; NCI-H23 lung; HOP-62 NSCLC; RPMI-8226 leukemia; MALME-3M melanoma; NCI/ADR-RES ovarian; CCRF-CEM leukemia; NCI-H522 lung; SF-295 CNS.
Assay in all cases: DTP human tumour cell line panel, 48 h

What is called GI50 is the concentration giving 50% growth inhibition. The term TGI denotes the concentration at which net growth stops. Read a low TGI as more potent growth arrest.

Structures are written as SMILES.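 Test compounds were applied to cells in 96-well plates for 48 hours at 5 doses. GI50 is the concentration that inhibits growth by half. TGI is the concentration that stops growth completely.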

For the compound `Cn1c(=O)c(Oc2ccccc2F)cc2cnc(NC3CCOCC3)nc21`, the GI50 with OVCAR-8 ovarian, with NCI-H226 lung, in the assay with NCI-H23 lung, with HOP-62 NSCLC, in the assay with RPMI-8226 leukemia and in the assay with MALME-3M melanoma was greater than 25 µM throughout. Moreover, the GI50 in the assay with NCI/ADR-RES ovarian, in the assay with CCRF-CEM leukemia, in the assay on NCI-H522 lung and in the assay with SF-295 CNS was greater than 25 µM each time. Also, the TGI in the assay on OVCAR-8 ovarian, with NCI-H226 lung, with NCI-H23 lung, in the assay on HOP-62 NSCLC, in the assay on RPMI-8226 leukemia and in the assay with MALME-3M melanoma was greater than 25 µM throughout. In addition, the TGI with NCI/ADR-RES ovarian, with CCRF-CEM leukemia, in the assay with NCI-H522 lung and with SF-295 CNS was greater than 25 µM each time.

In the case of `C[C@]1(CO)[C@H]2CC[C@@]34C=C[C@@](CO)(CC[C@H]3[C@]2(C)CC[C@H]1O)C4`, the TGI with OVCAR-8 ovarian is greater than 100 µM; with NCI-H226 lung it was greater than 100 µM; with NCI-H23 lung it was greater than 100 µM; in the assay on HOP-62 NSCLC, greater than 100 µM; in the assay with RPMI-8226 leukemia, 86.6 µM; in the assay on MALME-3M melanoma, greater than 100 µM. Besides, the TGI with NCI/ADR-RES ovarian, with CCRF-CEM leukemia, with NCI-H522 lung and with SF-295 CNS was greater than 100 µM throughout.

In the case of `COC(=O)c1sc(C(=O)OC)c2c1CSC2`, the TGI in the assay on OVCAR-8 ovarian, with NCI-H226 lung, in the assay on NCI-H23 lung, in the assay with HOP-62 NSCLC, in the assay on RPMI-8226 leukemia and with MALME-3M melanoma was greater than 100 µM in each case. Moreover, the TGI with NCI/ADR-RES ovarian, with CCRF-CEM leukemia, in the assay on NCI-H522 lung and in the assay with SF-295 CNS was greater than 100 µM throughout.

Take `COc1cc2c3c(n(CCCNCCN)c(=O)c2cc1OC)-c1cc2c(cc1C3=O)OCO2`: the GI50 is 0.259 µM in the assay on OVCAR-8 ovarian; 1.1 µM in the assay with NCI-H226 lung; 0.242 µM in the assay with NCI-H23 lung; 0.189 µM in the assay with HOP-62 NSCLC; 0.475 µM in the assay on RPMI-8226 leukemia; 0.654 µM with MALME-3M melanoma. The GI50 with NCI/ADR-RES ovarian is 18.9 µM; in the assay on CCRF-CEM leukemia it was less than 0.0105 µM; in the assay with NCI-H522 lung it was 0.245 µM; in the assay on SF-295 CNS, 1.24 µM. The TGI was 6.73 µM in the assay on OVCAR-8 ovarian; 2.55 µM in the assay on NCI-H226 lung; 1.14 µM in the assay on NCI-H23 lung; 1.73 µM in the assay with HOP-62 NSCLC; 3.02 µM in the assay with RPMI-8226 leukemia; 7.74 µM in the assay on MALME-3M melanoma. Besides, the TGI was greater than 62.4 µM in the assay with NCI/ADR-RES ovarian, 0.339 µM with CCRF-CEM leukemia, 2.29 µM in the assay with NCI-H522 lung and 20.3 µM with SF-295 CNS.

As to `O=C(c1ccc2ncc(-c3nc(NC4CC4)ncc3F)n2c1)N1CCOCC1`, the GI50 in the assay with OVCAR-8 ovarian is 2.44 µM; with NCI-H226 lung, 2.05 µM; in the assay on NCI-H23 lung it was 2.58 µM; in the assay with HOP-62 NSCLC it was 2.95 µM; with RPMI-8226 leukemia, 1.98 µM; in the assay with MALME-3M melanoma, 3.33 µM. Besides, the GI50 is 2.92 µM in the assay with NCI/ADR-RES ovarian, 1.72 µM in the assay on CCRF-CEM leukemia, 1.99 µM in the assay with NCI-H522 lung and 2.64 µM in the assay with SF-295 CNS. Moreover, the TGI was greater than 100 µM in the assay on OVCAR-8 ovarian; 6.39 µM in the assay on NCI-H226 lung; 9.68 µM in the assay with NCI-H23 lung; 8.28 µM in the assay with HOP-62 NSCLC; 5.32 µM in the assay on RPMI-8226 leukemia; 8.35 µM in the assay on MALME-3M melanoma. The total growth inhibition concentration (TGI) with NCI/ADR-RES ovarian is 19.2 µM; with CCRF-CEM leukemia, 4.74 µM; in the assay on NCI-H522 lung, 7.41 µM; in the assay on SF-295 CNS, greater than 100 µM.

Regarding `Nc1ccc(S(=O)(=O)C23CC4CC(CC(C4)C2)C3)cc1`, the TGI in the assay with OVCAR-8 ovarian, in the assay with NCI-H226 lung, in the assay with NCI-H23 lung, in the assay with HOP-62 NSCLC, with RPMI-8226 leukemia and in the assay on MALME-3M melanoma was greater than 100 µM in each case. The TGI in the assay with NCI/ADR-RES ovarian, in the assay on CCRF-CEM leukemia, with NCI-H522 lung and in the assay with SF-295 CNS was greater than 100 µM in each case.

Regarding `CCN1C(=S)N(CC)C2C1NC(=S)N2/N=C/C=C/c1ccccc1` (stereo not given), the GI50 in the assay with OVCAR-8 ovarian is 4.47 µM; in the assay on NCI-H226 lung it was 6.73 µM; in the assay with NCI-H23 lung it was 4.49 µM; in the assay with HOP-62 NSCLC, 2.26 µM; with RPMI-8226 leukemia, 1.97 µM; in the assay with MALME-3M melanoma, 2.09 µM. For the same compound, the GI50 was 1.54 µM with NCI/ADR-RES ovarian, 1.26 µM with CCRF-CEM leukemia, 0.739 µM in the assay on NCI-H522 lung and 1.04 µM with SF-295 CNS. For the same compound, the TGI in the assay on OVCAR-8 ovarian was 23.5 µM; in the assay with NCI-H226 lung, 24.4 µM; with NCI-H23 lung, 22 µM; in the assay with HOP-62 NSCLC, 15.7 µM; in the assay on RPMI-8226 leukemia, 6.64 µM; in the assay with MALME-3M melanoma it was 17.8 µM. In addition, the TGI stood at 12.6 µM in the assay on NCI/ADR-RES ovarian, 12 µM in the assay on CCRF-CEM leukemia, 3.7 µM in the assay with NCI-H522 lung and 11.8 µM with SF-295 CNS.

`Clc1ccc2[nH]cc(-c3nc(-c4c[nH]c5ncccc45)cs3)c2c1`: the GI50 with OVCAR-8 ovarian is 3.87 µM; with NCI-H226 lung, 3.69 µM; in the assay with NCI-H23 lung, 3.34 µM; in the assay with HOP-62 NSCLC it was 5.2 µM; with RPMI-8226 leukemia it was 3.34 µM; in the assay on MALME-3M melanoma it was 5.17 µM. The GI50 was 3.09 µM with NCI/ADR-RES ovarian, 4.14 µM with CCRF-CEM leukemia, 2.73 µM in the assay with NCI-H522 lung and 2.74 µM with SF-295 CNS. In addition, the TGI with OVCAR-8 ovarian was 20.8 µM; in the assay with NCI-H226 lung, 22.2 µM; with NCI-H23 lung, 20.5 µM; with HOP-62 NSCLC it was 27.3 µM; in the assay on RPMI-8226 leukemia it was 77.1 µM; in the assay with MALME-3M melanoma it was 19 µM. In addition, the TGI is 16.9 µM with NCI/ADR-RES ovarian, greater than 100 µM in the assay on CCRF-CEM leukemia, 13.7 µM with NCI-H522 lung and 7.66 µM with SF-295 CNS.

Turning to `O=C(NCCCNc1cc(-c2cn(-c3ccccc3)nc2-c2cccc(O)c2)ccn1)c1ccccc1`, the GI50 with OVCAR-8 ovarian is 4.45 µM; in the assay on NCI-H226 lung it was 2.72 µM; with NCI-H23 lung, 3.04 µM; in the assay with HOP-62 NSCLC, 3.79 µM; in the assay with RPMI-8226 leukemia, 1.06 µM; in the assay with MALME-3M melanoma it was 1.73 µM. In addition, the GI50 with NCI/ADR-RES ovarian was 2.67 µM; in the assay on CCRF-CEM leukemia, 3.14 µM; with NCI-H522 lung, 3.06 µM; with SF-295 CNS, 1.76 µM. The TGI amounted to 37.7 µM in the assay with OVCAR-8 ovarian; 17.9 µM with NCI-H226 lung; 26.6 µM with NCI-H23 lung; 14.1 µM in the assay with HOP-62 NSCLC; 3.3 µM in the assay on RPMI-8226 leukemia; 4.53 µM in the assay with MALME-3M melanoma. Besides, the TGI stood at 9.79 µM in the assay on NCI/ADR-RES ovarian, 54.7 µM with CCRF-CEM leukemia, 17.1 µM in the assay with NCI-H522 lung and 4.81 µM in the assay with SF-295 CNS.

In the case of `CCOc1cc2c(NCCCN(CCO)CCO)ncnc2c(OCC)c1OCC`, the TGI with OVCAR-8 ovarian, with NCI-H226 lung, in the assay on NCI-H23 lung, in the assay on HOP-62 NSCLC, with RPMI-8226 leukemia and in the assay with MALME-3M melanoma was greater than 100 µM throughout. For the same compound, the TGI with NCI/ADR-RES ovarian, in the assay on CCRF-CEM leukemia, in the assay on NCI-H522 lung and in the assay on SF-295 CNS was greater than 100 µM throughout.

Regarding `COC(=O)c1c2c(c(C)[n+]([O-])c1C)C(=O)C=C(NCc1ccc(F)c(F)c1)C2=O`, the GI50 in the assay with OVCAR-8 ovarian is 0.291 µM; with NCI-H226 lung it was 1.44 µM; in the assay on NCI-H23 lung it was 0.498 µM; with HOP-62 NSCLC, 0.86 µM; in the assay with RPMI-8226 leukemia, 0.783 µM; in the assay on MALME-3M melanoma, 0.139 µM. The GI50 was 0.313 µM with NCI/ADR-RES ovarian, 0.409 µM in the assay with CCRF-CEM leukemia, 0.286 µM in the assay with NCI-H522 lung and 0.437 µM in the assay on SF-295 CNS. For the same compound, the TGI in the assay on OVCAR-8 ovarian is 1.13 µM; in the assay on NCI-H226 lung it was 3.27 µM; with NCI-H23 lung, 2.59 µM; with HOP-62 NSCLC, 2.5 µM; in the assay with RPMI-8226 leukemia it was 3.23 µM; with MALME-3M melanoma, 0.301 µM. For the same compound, the TGI in the assay on NCI/ADR-RES ovarian was determined as 1.65 µM; in the assay with CCRF-CEM leukemia, 2.47 µM; with NCI-H522 lung, 1.35 µM; with SF-295 CNS, 1.59 µM.

On to `Cn1ncc2c(N)nc(N3CCCCC3)nc21`, for which the GI50 was 25.9 µM in the assay on OVCAR-8 ovarian; 22.1 µM in the assay with NCI-H226 lung; 28.4 µM with NCI-H23 lung; 51.9 µM with HOP-62 NSCLC; 33.1 µM with RPMI-8226 leukemia; 20.8 µM in the assay on MALME-3M melanoma. Also, the GI50 in the assay with NCI/ADR-RES ovarian is greater than 100 µM; in the assay with CCRF-CEM leukemia, 25.7 µM; in the assay on NCI-H522 lung, 23 µM; in the assay on SF-295 CNS it was 26.5 µM. The TGI in the assay with OVCAR-8 ovarian is 76.1 µM; in the assay with NCI-H226 lung, 48.3 µM; in the assay on NCI-H23 lung it was greater than 100 µM; with HOP-62 NSCLC, greater than 100 µM; with RPMI-8226 leukemia it was greater than 100 µM; in the assay on MALME-3M melanoma it was 67.9 µM. The TGI with NCI/ADR-RES ovarian is greater than 100 µM; with CCRF-CEM leukemia, 85.7 µM; with NCI-H522 lung, 63.9 µM; with SF-295 CNS, greater than 100 µM.

In the case of `N#Cc1c(-c2ccccc2)cc(-c2ccc(Nc3nc(Nc4ccc(Cl)cc4)nc(Nc4ccc(Cl)cc4)n3)cc2)nc1N`, the GI50 was 3.94 µM with OVCAR-8 ovarian; 1.73 µM in the assay with NCI-H226 lung; 6.14 µM in the assay with NCI-H23 lung; 19.1 µM with HOP-62 NSCLC; 3.81 µM with RPMI-8226 leukemia; 1.69 µM in the assay with MALME-3M melanoma. Also, the GI50 is 16.2 µM in the assay with NCI/ADR-RES ovarian, 3.1 µM in the assay with CCRF-CEM leukemia, 1.39 µM in the assay on NCI-H522 lung and 10.3 µM with SF-295 CNS. Besides, the TGI with OVCAR-8 ovarian is greater than 100 µM; in the assay with NCI-H226 lung, 3.75 µM; in the assay on NCI-H23 lung it was 61.4 µM; with HOP-62 NSCLC, 35 µM; in the assay on RPMI-8226 leukemia it was greater than 100 µM; with MALME-3M melanoma it was 3.62 µM. Also, the TGI is greater than 100 µM in the assay with NCI/ADR-RES ovarian, 9.4 µM in the assay on CCRF-CEM leukemia, 3.1 µM in the assay with NCI-H522 lung and 43.6 µM with SF-295 CNS.
